Measurements published in patent US20060165612A1, “Compositions for hygienic hand disinfection and disinfectant handwashing” (priority 2005, published 2006).

- solubility in water: 0.1 % by weight
SMILES: CCCCC(CC)COCC(O)CO (stereo not shown) [1-(2-ethylhexyl)glycerol ether, 1-(2-Ethylhexyl)glycerol ether]
